Patent publication US9580473B2, “Method of inhibiting HIV-1 binding to genital epithelia using V3 loop-specific peptides and GP340-specific antibodies” (priority 2006, dated 2017)

Assays:
[1] = tested on: HIV (primary M-tropic strain BL2); test: Trans-infection assay, 293 clone 1D4 stably expressing gp-340 pulsed with HIV, cocultured with PHA-blasts; type: cell-based, HIV-1; settings: for mean P24, transmission by clone 1D4 in presence of peptide: average of 6 wells
Method: FIG. 1. 293 cells stably expressing cell surface gp-340 enhance the transfer of HIV to target cells. (A) 293 cells and a clone, 1D4, stably expressing gp-340, were stained for surface expression of gp-340 using rabbit polyclonal antibody 1527. Isotype control stained cells shown are 293 cells, but the 1D4 clone gave the same pattern. (B) Clone 1D4 and 293 cells were pulsed with increasing IU of HIV BL2 virus with or without a V3-derived peptide 6284 (10 μg/ml) that blocks Env-gp-340 binding, washed and exposed to PHA-blasts for 7 days. IUs were calculated using PHA-blasts as target cells in a TCID50 assay. Experiment was performed in replicates of 6 wells per viral addition and data is expressed as the percentage of the wells that became infected.
Parental or gp-340 expressing 293 cells, VK2E6E7, Endo1E6E7, Ect1E6E7, or AGS cells or 1 mm^3 pieces of ectocervix obtained as described below seeded in 96 well plates were incubated with various IU inputs of HIV, in 100 μl final volume for 2 h at 37° C. and then extensively washed. Additional inhibitors, peptides or antibodies, were added to cells 30 min prior to pulsing with virus and replaced after cells were washed. Plates were centrifuged at 1250 rpm for 7 minutes between each wash. […] Infection was monitored by measuring supernatant-associated p24 Gag protein content on day 7. TCID50 was calculated using the Reed-Münch formula.
Secreted gp-340 found at high levels in the oral cavity and also exists in a cell surface-associated form, although mRNA containing exon 55, which encodes the putative transmembrane domain, has not yet been detected. […] The gp-340 expressing cell lines were measured for their ability to transmit cell-free HIV to human PHA- and IL-2-stimulated PBMCs (PHA-blasts). […] Infection was monitored by p24 Gag protein content in the culture supernatant in each well and scored for the presence or absence of infection. The assay used 6 replicates of cells for each viral dilution and condition and calculated the number of wells that became infected at each amount of added virus. […]

[2] = tested on: HIV; test: Direct HIV infection of PHA-blasts with peptide added before HIV; type: cell-based, HIV-1; settings: peptide added to PHA-blasts prior to HIV
[3] = tested on: HIV strain BL2; test: Trans-infection assay, AGS cells expressing endogenous gp-340 to T cell blasts; type: cell-based, HIV-1; settings: peptide 10 μg/ml, 15 min preincubation, p24 7 days later
Method: FIG. 2 Transmission of HIV by AGS cells expressing endogenous gp-340 is inhibited by peptide corresponding to the V3 domain of Env. AGS cells were preincubated with gp-340-specific peptide 6283 or 6284, and control peptide 6220 (10 μg/ml) for 15 min and then pulsed with decreasing amounts of HIV strain BL2. After viral exposure, the cells were washed four times to remove unbound virus and cocultured with T cell blasts in the absence of peptides for 24 h. The T cell blasts were then moved to new wells and p24 Gag antigen content was measured 7 days later. IUs were calculated using PHA-blasts as target cells in a TCID50 assay. Experiment was performed in replicates of six per virus concentration. Data is expressed as the percentage of the 6 wells in which the cells became infected for each virus concentration.
(§1) Parental or gp-340 expressing 293 cells, VK2E6E7, Endo1E6E7, Ect1E6E7, or AGS cells or 1 mm^3 pieces of ectocervix obtained as described below seeded in 96 well plates were incubated with various IU inputs of HIV, in 100 μl final volume for 2 h at 37° C. and then extensively washed. Additional inhibitors, peptides or antibodies, were added to cells 30 min prior to pulsing with virus and replaced after cells were washed. Plates were centrifuged at 1250 rpm for 7 minutes between each wash. After viral incubation and washing, PHA-blasts were cocultured with the pulsed cells for 7 days at 37° C. with IL-2. Infection was monitored by measuring supernatant-associated p24 Gag protein content on day 7. TCID50 was calculated using the Reed-Münch formula.
To examine native expressed gp-340, the gastrointestinal carcinoma cell line AGS, which is expresses gp-340, was analyzed for its ability to transmit HIV in vitro. AGS cells enhanced transmission of HIV to target CD4^+ T cells. Cells were infected in 50% of the wells when 0.08 infectious units (IU) of virus were pulsed per well. This represented a 6-fold enhancement in the viral infectivity by gp-340. Peptides 6283 and 6284, derived from the proposed gp-340 binding site in Env, abolished the enhancement in infectivity. […]

[4] = target: gp-340 (Homo sapiens, UniProt Q9UGM3); settings: previously shown/demonstrated; cited from earlier work
gp-340, sequence (Q9UGM3 20-2413): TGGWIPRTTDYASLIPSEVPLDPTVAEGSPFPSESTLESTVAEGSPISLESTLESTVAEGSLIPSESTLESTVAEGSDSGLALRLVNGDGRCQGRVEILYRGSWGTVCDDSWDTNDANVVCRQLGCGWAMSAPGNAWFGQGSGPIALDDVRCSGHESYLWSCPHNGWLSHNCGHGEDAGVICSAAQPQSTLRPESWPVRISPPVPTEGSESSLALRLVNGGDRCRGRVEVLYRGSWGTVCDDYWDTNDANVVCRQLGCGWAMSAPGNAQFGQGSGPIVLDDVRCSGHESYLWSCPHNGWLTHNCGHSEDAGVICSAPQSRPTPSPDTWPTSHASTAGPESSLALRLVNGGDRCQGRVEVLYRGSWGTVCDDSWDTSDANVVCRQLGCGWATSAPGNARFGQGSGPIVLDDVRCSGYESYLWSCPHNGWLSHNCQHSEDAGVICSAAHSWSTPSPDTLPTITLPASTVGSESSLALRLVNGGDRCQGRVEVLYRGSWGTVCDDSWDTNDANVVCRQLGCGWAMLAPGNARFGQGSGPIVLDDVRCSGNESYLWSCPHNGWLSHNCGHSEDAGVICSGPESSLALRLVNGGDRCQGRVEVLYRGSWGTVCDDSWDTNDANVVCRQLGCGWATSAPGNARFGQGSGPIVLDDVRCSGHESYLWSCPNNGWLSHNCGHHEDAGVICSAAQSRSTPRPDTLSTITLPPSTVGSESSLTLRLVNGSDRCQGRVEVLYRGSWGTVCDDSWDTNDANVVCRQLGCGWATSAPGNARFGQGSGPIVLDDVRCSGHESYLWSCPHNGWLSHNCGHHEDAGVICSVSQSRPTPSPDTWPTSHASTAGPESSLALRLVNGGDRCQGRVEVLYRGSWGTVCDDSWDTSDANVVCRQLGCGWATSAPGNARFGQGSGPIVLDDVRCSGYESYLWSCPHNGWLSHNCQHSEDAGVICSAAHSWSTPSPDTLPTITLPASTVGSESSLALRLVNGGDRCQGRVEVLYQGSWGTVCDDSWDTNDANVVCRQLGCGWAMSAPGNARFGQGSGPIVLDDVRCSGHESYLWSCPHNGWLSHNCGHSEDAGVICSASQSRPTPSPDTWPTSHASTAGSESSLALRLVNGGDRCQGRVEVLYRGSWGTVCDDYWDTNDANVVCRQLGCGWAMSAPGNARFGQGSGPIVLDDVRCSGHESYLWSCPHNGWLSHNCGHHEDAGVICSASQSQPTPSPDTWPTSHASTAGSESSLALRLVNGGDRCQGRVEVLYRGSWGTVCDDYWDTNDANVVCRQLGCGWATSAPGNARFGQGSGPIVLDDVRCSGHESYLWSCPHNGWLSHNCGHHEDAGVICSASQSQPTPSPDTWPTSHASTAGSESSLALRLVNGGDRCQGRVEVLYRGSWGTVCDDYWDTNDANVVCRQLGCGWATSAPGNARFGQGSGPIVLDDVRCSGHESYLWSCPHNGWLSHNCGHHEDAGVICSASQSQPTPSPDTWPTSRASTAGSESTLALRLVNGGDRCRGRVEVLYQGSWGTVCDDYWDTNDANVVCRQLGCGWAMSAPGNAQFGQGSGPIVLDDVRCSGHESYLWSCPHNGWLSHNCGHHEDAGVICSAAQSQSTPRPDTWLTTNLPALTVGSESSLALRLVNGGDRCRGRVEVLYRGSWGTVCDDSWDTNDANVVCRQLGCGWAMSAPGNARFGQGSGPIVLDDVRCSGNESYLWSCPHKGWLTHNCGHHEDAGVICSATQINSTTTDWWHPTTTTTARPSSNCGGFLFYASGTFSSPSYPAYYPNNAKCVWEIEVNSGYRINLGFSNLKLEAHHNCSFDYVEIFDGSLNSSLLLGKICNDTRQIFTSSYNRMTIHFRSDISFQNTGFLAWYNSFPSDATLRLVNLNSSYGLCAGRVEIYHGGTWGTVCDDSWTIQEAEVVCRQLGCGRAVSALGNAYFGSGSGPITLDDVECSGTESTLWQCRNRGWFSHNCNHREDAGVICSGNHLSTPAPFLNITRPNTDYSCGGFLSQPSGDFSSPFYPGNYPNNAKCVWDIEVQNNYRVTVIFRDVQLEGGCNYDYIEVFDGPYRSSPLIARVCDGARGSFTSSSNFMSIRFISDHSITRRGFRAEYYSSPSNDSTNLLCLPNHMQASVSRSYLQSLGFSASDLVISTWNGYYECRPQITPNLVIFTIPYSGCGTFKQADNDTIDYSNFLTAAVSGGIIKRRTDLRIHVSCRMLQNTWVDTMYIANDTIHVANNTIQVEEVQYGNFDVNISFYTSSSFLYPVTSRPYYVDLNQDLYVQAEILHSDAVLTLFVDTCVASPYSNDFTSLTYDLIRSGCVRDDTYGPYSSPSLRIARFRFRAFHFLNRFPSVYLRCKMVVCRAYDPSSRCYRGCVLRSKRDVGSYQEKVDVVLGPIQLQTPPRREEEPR

[5] = tested on: HIV-1 BL2 virus; test: Trans-infection assay, vaginal epithelial cells (VK2E6E7) to PHA-blasts; type: cell-based; settings: pre-incubation with antibody, or peptide at time of viral pulsing; p24 after 7 days
Method: Vaginal epithelial cells (VK2E6E7) were incubated with isotype control or gp-340-specific antibodies 116 or DAPA and then pulsed with HIV-1 BL2 virus. After extensive washing, PHA-blasts were added for 24 h and then moved to new plates without VK2E6E7 cells. After 7 days, p24 Gag protein content in the supernatant was measured. Samples were run in triplicate and standard error of the mean is given.
as §1
Cell lines were pulsed with decreasing amounts of HIV Ba-L, washed and had target cells immediately added or added after 2 or 4 days of culture. […]

[6] = tested on: HIV; test: Trans-infection by genital tract epithelial cell lines; type: cell-based; settings: treatment completely removes syndecan expression

CTRPNYNKRKRIHIG [peptide 6284]
mean P24, transmission by clone 1D4 in presence of peptide ([1]; 0.11 IU viral input, without peptide 184): 7
mean P24, transmission by clone 1D4 in presence of peptide ([1]; 0.33 IU viral input, without peptide 239): 7
enhancement of HIV trans-infection (TCID50) by gp-340-expressing cells ([1]; gp-340-expressing 293 cells pre-incubated with peptide 10 μg/ml, HIV BL2, PHA-blasts 7 days): abolished
infection of PHA-blasts [2]: did not affect
enhancement in infectivity (transmission of HIV by AGS cells) [3]: abolished
Env binding to gp-340 [4]: block

DAPA
ability of VK2E6E7 cells to bind and transmit HIV to PHA-blasts [5]: markedly decreased
Env binding to gp-340 [4]: inhibit

KEATTTLFCASDAKA (Human) [peptide 6220, control peptide derived from another part of Env, reference compound]
enhancement in infectivity (transmission of HIV by AGS cells) [3]: had no impact

VQINCTRPNYNKRKR [peptide 6283]
enhancement in infectivity (transmission of HIV by AGS cells) [3]: abolished

B1: heparinase: enzyme treatment that completely removes syndecan expression (protein, UniProt Q59289 25-659, looked up)
Heparin-sulfate lyase: QSSSITRKDFDHINLEYSGLEKVNKAVAAGNYDDAAKALLAYYREKSKAREPDFSNAEKPADIRQPIDKVTREMADKALVHQFQPHKGYGYFDYGKDINWQMWPVKDNEVRWQLHRVKWWQAMALVYHATGDEKYAREWVYQYSDWARKNPLGLSQDNDKFVWRPLEVSDRVQSLPPTFSLFVNSPAFTPAFLMEFLNSYHQQADYLSTHYAEQGNHRLFEAQRNLFAGVSFPEFKDSPRWRQTGISVLNTEIKKQVYADGMQFELSPIYHVAAIDIFLKAYGSAKRVNLEKEFPQSYVQTVENMIMALISISLPDYNTPMFGDSWITDKNFRMAQFASWARVFPANQAIKYFATDGKQGKAPNFLSKALSNAGFYTFRSGWDKNATVMVLKASPPGEFHAQPDNGTFELFIKGRNFTPDAGVFVYSGDEAIMKLRNWYRQTRIHSTLTLDNQNMVITKARQNKWETGNNLDVLTYTNPSYPNLDHQRSVLFINKKYFLVIDRAIGEATGNLGVHWQLKEDSNPVFDKTKNRVYTTYRDGNNLMIQSLNADRTSLNEEEGKVSYVYNKELKRPAFVFEKPKKNAGTQNFVSIVYPYDGQKAPEISIRENKGNDFEKGKLNLTLTINGKQQLVLVP
trans-infection after heparinase treatment [6]: no effect
